Assay results published in paper PMC12881674, “Activation of TRPV3 channels in bladder cancer cells stimulates ATP release” (Molecular Pharmacology, 2025).

Target: T1, TRPV3 in KU-19-19 cells (Homo sapiens, UniProt Q8NET8)
T1 construct: host or cells: KU-19-19
T1 sequence (Q8NET8 1-790): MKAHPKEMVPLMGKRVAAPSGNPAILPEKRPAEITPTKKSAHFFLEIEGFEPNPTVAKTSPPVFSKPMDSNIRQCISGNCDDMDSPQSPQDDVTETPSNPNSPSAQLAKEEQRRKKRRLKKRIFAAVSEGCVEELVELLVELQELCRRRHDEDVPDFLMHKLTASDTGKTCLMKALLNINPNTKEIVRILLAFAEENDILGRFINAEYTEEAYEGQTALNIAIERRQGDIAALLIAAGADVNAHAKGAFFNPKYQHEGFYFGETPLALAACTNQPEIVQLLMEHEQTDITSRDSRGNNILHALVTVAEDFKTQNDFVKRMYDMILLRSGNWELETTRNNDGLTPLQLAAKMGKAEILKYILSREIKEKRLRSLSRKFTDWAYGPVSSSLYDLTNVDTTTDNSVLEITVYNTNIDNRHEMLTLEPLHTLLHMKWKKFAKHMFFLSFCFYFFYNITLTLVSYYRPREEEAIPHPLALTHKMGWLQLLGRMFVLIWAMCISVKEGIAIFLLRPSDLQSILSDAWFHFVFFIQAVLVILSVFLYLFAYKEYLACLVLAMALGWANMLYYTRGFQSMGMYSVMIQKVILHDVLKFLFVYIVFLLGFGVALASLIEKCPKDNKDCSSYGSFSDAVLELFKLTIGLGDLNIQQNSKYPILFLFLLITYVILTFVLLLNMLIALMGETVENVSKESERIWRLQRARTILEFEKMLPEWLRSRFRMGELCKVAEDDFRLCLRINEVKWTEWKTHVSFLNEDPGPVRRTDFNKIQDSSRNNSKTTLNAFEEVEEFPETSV
Assay: fura-2 Ca2+ assay in KU-19-19 bladder cancer cells
Assay type: cell-based
Conditions: 50 μM AV3-1
Experimental: All fluorometric Ca^2+ assays were performed in HBS buffer at room temperature. The compounds of the Enamine Diversity Set were diluted in a buffer composed of 150 mM NaCl and 20 mM HEPES and added to the cells at a final concentration of 25 μM (0.5% DMSO). For the primary compound screening and the generation of concentration-response analyses, a robotic liquid handling station (Freedom Evo 150; Tecan) with a built-in custom-made fluorescence plate imager was used. HEKTRPV3 and bladder cancer cell lines were harvested and loaded with 4 μM fluo-4/AM (Invitrogen; Fisher Scientific) in cell culture medium for 30 minutes at 37 °C. […] Fluorescence was excited using a 470-nm light-emitting diode, and emitted light was imaged through a 515-nm–long pass filter with a cooled Zyla 5.5 camera (Andor). Fluorescence was recorded and processed under the control of the μ-Manager 2.0 gamma software (https://micro-manager.org.[28]). After recording baseline fluorescence, compounds were dispensed into the wells via the liquid handling device. […] For further analysis, fluorescence signals were calculated for each well, corrected for background intensities and normalized to the initial signals. […] Fluorescence signals were excited with a fiber-coupled monochromator device (Polychrome V; Till Photonics) at 340, 358, and 380 nm and calibrated as described before.[29] […]

With `COC(=O)C12CN(Cc3ccccc3)CC1(C(=O)OC)CN(Cc1ccccc1)C2` (stereo not shown) [AV3-1] the “[Ca2+]i response in KU-19-19 cells” value was “robust increases in [Ca^2+]i”.
